*1 amine or outer side, *2 acyl side, *3 side chain or, on linkers, in order; H or OH if unused. Where a SMILES comes first, the peptide text is derived from it. The star is where a group is joined. Piperidide = C1CCN(*)CC1; CO = O=C([*:1])[*:2]; Bn = c1ccc(C*)cc1; OtBu = CC(C)(C)O*
Molecular target: T1, N-type Ca2+ channels in IMR-32 cells (Homo sapiens, UniProt Q00975)
T1 construct: host or cells: IMR-32 cells, differentiated with dibutyryl cAMP and bromodeoxyuridine
Assay: Inhibition of N-type calcium flux in IMR-32 cells (Indo-1 fluorescence, nitrendipine present)
Format: cell-based
Conditions: for inhibition at 1 µM / inhibition at 10 µM: IMR-32; for IC50: IMR-32 cells, 5 μM nitrendipine, K+ depolarization
Method in brief: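 Differentiated IMR-32 cells (7–13 days) were loaded with 5 μM Indo-1 AM, preincubated with compound for 10 min at 30° C, and depolarized with KCl/CaCl2 stimulation solution, with 5 μM nitrendipine blocking L-channels. Peak-minus-basal 400/490 nm emission ratio was plotted against drug concentration, and IC50 came from four-parameter logistic fits.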

T1 sequence (Q00975 whole entry): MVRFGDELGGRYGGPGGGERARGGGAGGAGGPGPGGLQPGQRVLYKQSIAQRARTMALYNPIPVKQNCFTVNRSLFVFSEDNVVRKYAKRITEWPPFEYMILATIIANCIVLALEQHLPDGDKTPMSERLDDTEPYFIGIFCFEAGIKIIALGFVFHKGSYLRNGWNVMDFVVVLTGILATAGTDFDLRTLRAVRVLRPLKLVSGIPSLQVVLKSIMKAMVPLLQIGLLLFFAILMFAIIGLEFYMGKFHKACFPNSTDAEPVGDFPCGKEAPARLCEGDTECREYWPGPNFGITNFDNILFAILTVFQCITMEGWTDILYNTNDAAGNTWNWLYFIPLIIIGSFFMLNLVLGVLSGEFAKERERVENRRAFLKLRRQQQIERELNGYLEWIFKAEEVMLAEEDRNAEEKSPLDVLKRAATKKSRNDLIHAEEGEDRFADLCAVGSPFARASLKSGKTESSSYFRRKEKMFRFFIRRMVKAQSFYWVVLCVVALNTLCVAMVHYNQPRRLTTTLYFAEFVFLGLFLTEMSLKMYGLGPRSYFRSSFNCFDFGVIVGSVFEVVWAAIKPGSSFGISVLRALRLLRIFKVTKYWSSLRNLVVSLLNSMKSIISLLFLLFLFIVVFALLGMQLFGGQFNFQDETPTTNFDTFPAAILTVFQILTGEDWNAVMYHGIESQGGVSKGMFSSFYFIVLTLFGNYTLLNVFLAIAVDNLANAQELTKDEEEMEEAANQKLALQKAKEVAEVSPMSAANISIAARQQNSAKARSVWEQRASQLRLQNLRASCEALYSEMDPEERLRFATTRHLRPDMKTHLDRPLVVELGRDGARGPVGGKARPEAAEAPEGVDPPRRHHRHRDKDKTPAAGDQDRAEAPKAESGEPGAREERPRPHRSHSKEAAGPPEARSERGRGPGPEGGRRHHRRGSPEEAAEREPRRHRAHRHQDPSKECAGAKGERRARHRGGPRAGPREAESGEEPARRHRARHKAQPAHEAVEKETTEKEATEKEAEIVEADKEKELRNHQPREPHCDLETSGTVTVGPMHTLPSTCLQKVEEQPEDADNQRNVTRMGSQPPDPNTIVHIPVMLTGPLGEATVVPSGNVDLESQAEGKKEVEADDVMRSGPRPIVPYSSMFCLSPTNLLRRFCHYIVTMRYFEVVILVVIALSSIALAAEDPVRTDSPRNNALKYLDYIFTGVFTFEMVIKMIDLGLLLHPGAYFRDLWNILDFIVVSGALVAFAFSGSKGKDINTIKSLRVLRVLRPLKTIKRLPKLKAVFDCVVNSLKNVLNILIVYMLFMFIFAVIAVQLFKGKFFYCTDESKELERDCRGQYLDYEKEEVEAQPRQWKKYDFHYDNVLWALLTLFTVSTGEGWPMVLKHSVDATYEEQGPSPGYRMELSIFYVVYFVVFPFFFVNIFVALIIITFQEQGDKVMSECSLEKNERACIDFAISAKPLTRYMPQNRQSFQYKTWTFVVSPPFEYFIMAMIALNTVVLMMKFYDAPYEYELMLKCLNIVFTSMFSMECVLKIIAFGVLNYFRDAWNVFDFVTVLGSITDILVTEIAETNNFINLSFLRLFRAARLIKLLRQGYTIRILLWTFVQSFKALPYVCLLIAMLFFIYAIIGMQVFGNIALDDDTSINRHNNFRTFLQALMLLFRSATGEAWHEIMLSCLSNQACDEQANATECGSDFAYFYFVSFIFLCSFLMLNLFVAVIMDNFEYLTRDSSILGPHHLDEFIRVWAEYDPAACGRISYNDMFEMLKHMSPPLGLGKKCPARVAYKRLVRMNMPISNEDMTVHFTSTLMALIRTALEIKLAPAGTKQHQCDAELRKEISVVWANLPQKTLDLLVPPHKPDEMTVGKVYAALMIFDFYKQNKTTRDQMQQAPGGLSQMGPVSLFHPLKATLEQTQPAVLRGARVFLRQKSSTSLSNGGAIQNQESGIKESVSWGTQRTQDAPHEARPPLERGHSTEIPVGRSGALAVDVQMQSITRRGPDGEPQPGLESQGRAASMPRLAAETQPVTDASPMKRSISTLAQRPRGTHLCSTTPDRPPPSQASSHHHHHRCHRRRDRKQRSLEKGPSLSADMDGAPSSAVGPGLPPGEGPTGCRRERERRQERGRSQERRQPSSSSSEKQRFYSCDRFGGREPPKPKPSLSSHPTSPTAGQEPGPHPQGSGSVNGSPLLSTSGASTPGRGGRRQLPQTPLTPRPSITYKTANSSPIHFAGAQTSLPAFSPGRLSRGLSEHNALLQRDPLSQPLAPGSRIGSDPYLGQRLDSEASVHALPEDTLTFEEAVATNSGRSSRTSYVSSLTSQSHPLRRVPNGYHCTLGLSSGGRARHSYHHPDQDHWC
T1 sequence (P54289 25-956 partner limits assumed): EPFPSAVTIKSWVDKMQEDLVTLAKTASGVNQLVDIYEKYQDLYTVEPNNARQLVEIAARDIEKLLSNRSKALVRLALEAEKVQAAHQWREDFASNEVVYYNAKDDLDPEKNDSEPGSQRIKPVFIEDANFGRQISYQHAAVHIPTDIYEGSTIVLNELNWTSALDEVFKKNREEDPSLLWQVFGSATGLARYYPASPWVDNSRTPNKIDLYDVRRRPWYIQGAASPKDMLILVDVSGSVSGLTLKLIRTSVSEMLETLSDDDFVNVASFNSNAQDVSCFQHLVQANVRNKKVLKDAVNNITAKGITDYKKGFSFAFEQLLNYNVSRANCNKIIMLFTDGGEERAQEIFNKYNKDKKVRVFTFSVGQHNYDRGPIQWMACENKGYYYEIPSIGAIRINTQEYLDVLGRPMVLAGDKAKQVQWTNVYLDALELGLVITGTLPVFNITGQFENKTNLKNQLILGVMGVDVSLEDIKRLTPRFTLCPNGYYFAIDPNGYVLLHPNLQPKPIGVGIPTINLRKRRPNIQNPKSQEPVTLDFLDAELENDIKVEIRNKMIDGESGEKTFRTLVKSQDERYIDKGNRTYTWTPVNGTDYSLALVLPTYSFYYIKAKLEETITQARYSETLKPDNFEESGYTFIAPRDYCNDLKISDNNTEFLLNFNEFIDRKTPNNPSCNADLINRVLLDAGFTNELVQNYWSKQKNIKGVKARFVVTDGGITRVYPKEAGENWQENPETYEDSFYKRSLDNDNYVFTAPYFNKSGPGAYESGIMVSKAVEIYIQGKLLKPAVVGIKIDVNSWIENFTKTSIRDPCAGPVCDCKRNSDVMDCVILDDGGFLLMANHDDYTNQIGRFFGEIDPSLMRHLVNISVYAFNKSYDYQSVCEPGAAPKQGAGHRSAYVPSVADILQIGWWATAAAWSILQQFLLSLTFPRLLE
T1 sequence (P54289 957-1103 partner limits assumed): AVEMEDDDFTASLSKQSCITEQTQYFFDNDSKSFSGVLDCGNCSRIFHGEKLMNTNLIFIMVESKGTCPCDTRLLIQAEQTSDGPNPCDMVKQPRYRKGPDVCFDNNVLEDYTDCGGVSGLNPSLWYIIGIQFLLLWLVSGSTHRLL
T1 sequence (P54284 whole entry partner): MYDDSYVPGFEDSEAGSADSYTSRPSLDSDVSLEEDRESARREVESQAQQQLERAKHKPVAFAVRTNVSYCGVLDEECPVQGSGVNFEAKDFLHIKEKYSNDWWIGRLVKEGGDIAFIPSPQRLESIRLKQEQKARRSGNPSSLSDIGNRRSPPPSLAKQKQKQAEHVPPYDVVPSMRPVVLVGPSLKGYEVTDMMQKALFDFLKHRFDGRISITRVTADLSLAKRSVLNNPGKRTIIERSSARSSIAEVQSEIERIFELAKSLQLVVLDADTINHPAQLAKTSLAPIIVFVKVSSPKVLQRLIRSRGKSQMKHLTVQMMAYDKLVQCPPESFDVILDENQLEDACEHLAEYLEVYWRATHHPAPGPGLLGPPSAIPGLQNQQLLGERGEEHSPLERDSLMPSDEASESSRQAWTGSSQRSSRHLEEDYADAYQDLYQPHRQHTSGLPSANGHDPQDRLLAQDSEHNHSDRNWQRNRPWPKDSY

SMILES	IC50 [µM]	other results
COc1cc(C(=O)NC(CC(C)C)C(=O)N[C@@H](Cc2ccc(OCc3ccccc3)cc2)C(=O)OC(C)(C)C)cc(OC)c1OC (stereo in doubt) [Example 92, [S(R*,R*)]-3-(4-Benzyloxy-phenyl)-2-[4-methyl-2-(3,4,5-trimethoxy-benzoylamino)-pentanoylamino]-propionic acid tert-butyl ester]		Inhibition of Calcium Flux in IMR-32 Cells % Inhibition at 1 μM: 1%; Inhibition of Calcium Flux in IMR-32 Cells % Inhibition at 10 μM (10 μM): 65%
CSCCC(CO)NC(=O)[C@H](Cc1ccc(OCc2ccccc2)cc1)NC(=O)C(CC(C)C)NC(=O)N1CCCCCC1 (stereo in doubt) [Example 238, Azepane-1-carboxylic acid {(R)-1-[(S)-2-(4-benzyloxy-phenyl)-(S)-1-(1-hydroxymethyl-3-methylsulfanyl-propylcarbamoyl)-ethylcarbamoyl]-3-methyl-butyl}-amide]	0.74	inhibition at 1 µM: 62%; inhibition at 10 µM: 95%
CC(C)[C@H](NC(=O)N1CCCCCC1)C(=O)N[C@@H](Cc1ccc(OCc2ccccc2)cc1)C(=O)OC(C)(C)C [Example 6, [S-(R*,R*)]-2-{2-[(Azepane-1-carbonyl)-amino]-3-methyl-butyrylamino}-3-(4-benzyloxy-phenyl)-propionic acid tert-butyl ester]	0.72	inhibition at 1 µM: 63%; inhibition at 10 µM: 98%
CC(C)C[C@H](NC(=O)N1CCCCCC1)C(=O)N[C@@H](Cc1ccc(OCc2ccc(C#N)cc2)cc1)C(=O)OC(C)(C)C [Example 27, [S-(R*,R*)]-2-{2-[(Azepane-1-carbonyl)-amino]-4-methyl-pentanoylamino}-3-[4-(4-cyano-benzyloxy)-phenyl]-propionic acid tert-butyl ester]	0.81	inhibition at 1 µM: 51%; inhibition at 10 µM: 92%
CC(C)C[C@H](NC(=O)N[C@H](C)c1ccccc1)C(=O)N[C@@H](Cc1ccc(OCc2ccccc2)cc1)C(=O)OC(C)(C)C [Example 63, 3-(4-Benzyloxy-phenyl)-(S)-2-{4-methyl-(S)-2-[3-[(R)-1-phenyl-ethyl]-ureido]-pentanoylamino}-propionic acid tert-butyl ester]		inhibition at 1 µM: 33%
COC(=O)C(Cc1ccccc1)NC(=O)NC(CC(C)C)C(=O)NC(Cc1ccc(OCc2ccccc2)cc1)C(=O)OC(C)(C)C (stereo not drawn) [Example 66, [S-(R*,R*)]-3-(4-Benzyloxy-phenyl)-{2-[3-(1-methoxycarbonyl-2-phenyl-ethyl)-ureido]-4-methyl-pentanoylamino}-propionic acid tert-butyl ester] ({OMe-Phe-CO}-Leu-Tyr(Bn)-OtBu; configuration not given here)		Inhibition of Calcium Flux in IMR-32 Cells % Inhibition at 1 μM: 42%
Cc1noc(C)c1S(=O)(=O)N[C@@H](CC(C)C)C(=O)N[C@@H](Cc1ccc(OCc2ccccc2)cc1)C(=O)OC(C)(C)C [Example 111, [S-(R*,R*)]-3-(4-Benzyloxy-phenyl)-2-[2-(3,5-dimethyl-isoxazole-4-sulfonylamino)-4-methyl-pentanoylamino]-propionic acid tert-butyl ester]	1.1	inhibition at 1 µM: 50%; inhibition at 10 µM: 96%
O=C(NCCN1CCCCC1)[C@H](Cc1ccc(OCc2ccccc2)cc1)NC(=O)[C@@H]1CCCN1C(=O)N1CCCCCC1 [Example 152, [S-(R*,R*)]-1-(Azepane-1-carbonyl)-pyrrolidine-2-carboxylic acid [2-(4-benzyloxy-phenyl)-1-(2-piperidin-1-yl-ethylcarbamoyl)-ethyl]-amide]	1.9	
CC(C)(C)NC(=O)[C@H](Cc1ccc(OCc2ccccc2)cc1)NC(=O)[C@@H]1CCCN1C(=O)N1CCCCCC1 [Example 153, [S-(R*,R*)]-1-(Azepane-1-carbonyl)-pyrrolidine-2-carboxylic acid [2-(4-benzyloxy-phenyl)-1tert-butylcarbamoyl-ethyl]-amide]	3.7	
CSCC[C@H](NC(=O)N1CCCCCC1)C(=O)N[C@@H](Cc1ccc(OCc2ccccc2)cc1)C(=O)NC(C)(C)C [Example 155, [S-(R*,R*)]-Azepane1-carboxylic acid {1-[2-(4-benzyloxy-phenyl)-1-tert-butylcarbamoyl-ethylcarbamoyl]-3-methylsulfanyl-propyl}-amide]	2.5	
O=C(NCCN1CCCCC1)[C@H](Cc1ccc(OCc2ccccc2)cc1)NC(=O)[C@H](Cc1ccc(Br)cc1)NC(=O)N1CCCCCC1 [Example 157, [S-(R*,R*)]-Azepane-1-carboxylic acid [1-[2-(4-benzyloxy-phenyl)-1-(2-piperidin-1-ylethylcarbamoyl)-ethylcarbamoyl]-2-(4-bromo-phenyl)-ethyl]-amide]	2.3	
CC(C)(C)NC(=O)[C@H](Cc1ccc(OCc2ccccc2)cc1)NC(=O)[C@H](Cc1ccc(O)cc1)NC(=O)N1CCCCCC1 [Example 160, [S-(R*,R*)]-Azepane-1-carboxylic acid [1-[2-(4-benzyloxy-phenyl)-1-tert-butylcarbamoyl-ethylcarbamoyl]-2-(4-hydroxy-phenyl)-ethyl]-amide]	2.5	
CC(C)(C)NC(=O)[C@H](Cc1ccc(OCc2ccccc2)cc1)NC(=O)[C@H](Cc1ccc(OC(C)(C)C)cc1)NC(=O)N1CCCCCC1 [Example 163, [S-(R*,R*)]-Azepane-1-carboxylic acid [1-[2-(4-benzyloxy-phenyl)-1-tert-butylcarbamoyl-ethylcarbamoyl]-2-(4-tert-butoxy-phenyl)-ethyl]-amide]	0.49	
CC(C)C[C@H](NC(=O)N1CCCCCC1)C(=O)N[C@@H](Cc1ccc(OCc2ccccc2)cc1)C(=O)NCCN1CCCC1=O [Example 170, [S-(R*,R*)]-Azepane-1-carboxylic acid (1-{2-(4-benzyloxy-phenyl)-1-[2-(2-oxo-pyrrolidin-1yl)-ethylcarbamoyl]-ethylcarbamoyl}-3-methyl-butyl)-amide]	1.3	
CC(C)C[C@H](NC(=O)N1CCCCCC1)C(=O)N[C@@H](Cc1ccc(OCc2ccccc2)cc1)C(=O)NCCc1c[nH]cn1 [Example 172, [S-(R*,R*)]-Azepane-1-carboxylic acid (1-{2-(4-benzyloxy-phenyl)-1-[2-(1H-imidazol-4-yl)ethylcarbamoyl]-ethylcarbamoyl}-3-methyl-butyl)-amide]	2.3	

Second part, led by results:

IC50 [µM]	SMILES	other results
0.82	COc1ccc(COc2ccc(C[C@H](NC(=O)[C@H](CC(C)C)NC(=O)N3CCCCCC3)C(=O)OC(C)(C)C)cc2)cc1 [Example 32, [S-(R*,R*)]-2-{2-[(Azepane-1-carbonyl)-amino]-4-methyl-pentanoylamino}-3-[4-(4-methoxy-benzyloxy)-phenyl]-propionic acid tert-butyl ester]	inhibition at 1 µM: 52%; inhibition at 10 µM: 86%
2.2	CC(C)C[C@H](NC(=O)N1CCCCC1)C(=O)N[C@@H](Cc1ccc(OCc2ccccc2)cc1)C(=O)OC(C)(C)C [Example 33, [S-(R*,R*)]-3-(4-Benzyloxy-phenyl)-2-{4-methyl-2-[(piperidine-1-carbonyl)-amino]-pentanoylamino}-propionic acid tert-butyl ester] ({Piperidide-CO}-Leu-Tyr(Bn)-OtBu)	inhibition at 1 µM: 48%; inhibition at 10 µM: 79%
9.6	CSCC[C@H](NC(=O)N1CCCCCC1)C(=O)N[C@@H](Cc1ccc(OCc2ccccc2)cc1)C(=O)NCCN1CCCCC1 [Example 154, [S-(R*,R*)]-Azepane-1-carboxylic acid {1-[2-(4-benzyloxy-phenyl)-1-(2-piperidin-1-ylethylcarbamoyl)-ethylcarbamoyl]-3-methylsulfanyl-propyl}-amide]	
5.3	O=C(NCCN1CCCCC1)[C@H](Cc1ccc(OCc2ccccc2)cc1)NC(=O)[C@H](Cc1ccc(O)cc1)NC(=O)N1CCCCCC1 [Example 156, [S-(R*,R*)]-Azepane-1-carboxylic acid [1-[2-(4-benzyloxy-phenyl)-1-(2-piperidin-1-ylethylcarbamoyl)-ethylcarbamoyl]-2-(4-hydroxy-phenyl)-ethyl]-amide]	
0.9	CC(C)(C)NC(=O)[C@H](Cc1ccc(OCc2ccccc2)cc1)NC(=O)[C@H](CCCCC(=O)OC(C)(C)C)NC(=O)N1CCCCCC1 [Example 164, [S-(R*,R*)]-6-[(Azepane-1-carbonyl)-amino]-6-[2-(4-benzyloxy-phenyl)-1-tert-butylcarbamoyl-ethylcarbamoyl]-hexanoic acid tert-butyl ester]	
1.3	CC(C)C[C@H](NC(=O)N1CCCCCC1)C(=O)N[C@@H](Cc1ccc(OCc2ccccc2)cc1)C(=O)N1CCOCC1 [Example 166, [S-(R*,R*)]-Azepane-1-carboxylic acid {1-[1-(4-benzyloxy-benzyl)-2-morpholin-4-yl-2-oxo-ethylcarbamoyl]-3-methyl-butyl}-amide]	
0.68	CCCCCCNC(=O)[C@H](Cc1ccc(OCc2ccccc2)cc1)NC(=O)[C@H](CC(C)C)NC(=O)N1CCCCCC1 [Example 168, [S-(R*,R*)]-Azepane-1-carboxylic acid {1-[2-(4-benzyloxy-phenyl)-1-hexylcarbamoyl-ethylcarbamoyl]-3-methyl-butyl}-amide]	
1.6	CCCNC(=O)[C@H](Cc1ccc(OCc2ccccc2)cc1)NC(=O)[C@H](CC(C)C)NC(=O)N1CCCCCC1 [Example 169, [S-(R*,R*)]-Azepane-1-carboxylic acid {1-[2-(4-benzyloxy-phenyl)-1-propylcarbamoyl-ethylcarbamoyl]-3-methyl-butyl}-amide]	
2.7	CC(C)C[C@H](NC(=O)N1CCCCCC1)C(=O)N[C@@H](Cc1ccc(OCc2ccccc2)cc1)C(=O)NCCN(C)C [Example 175, [S-(R*,R*)]-Azepane-1-carboxylic acid {1-[2-(4-benzyloxy-phenyl)-1-(2-dimethylamino-ethylcarbamoyl)-ethylcarbamoyl]-3-methyl-butyl}-amide]	

From patent US6423689B1, “Peptidyl calcium channel blockers” (Warner-Lambert Company, priority 1997, dated 2002)
